For 10 compounds, IC50 and Ki results are on record in ChEMBL document CHEMBL1909046, “DrugMatrix in vitro pharmacology data”.

Assay [1] has as its target Protein phosphatase 3 catalytic subunit alpha (Homo sapiens, UniProt Q08209). Further details: species or system Escherichia coli.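 Further: inhibition of calcineurin (PP2B) enzyme activity, measured with DiFMUP as the substrate; in other assays of this panel Not Active means under 50% inhibition at 10 µM.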
Assay [2] in a line: DRUGMATRIX: Phosphodiesterase PDE4 enzyme inhibition (substrate: [3H]cAMP + cAMP). Particulars: u-937; Not Active = under 50% inhibition at 10 µM.
Assay [3] deals with Sigma non-opioid intracellular receptor 1 (Homo sapiens, UniProt Q99720). The assay is described as follows: DRUGMATRIX: Sigma1 radioligand binding (ligand: [3H] Haloperidol). Type of assay: cell membranes, Jurkat, Membrane. The following applies: Not Active = under 50% inhibition at 10 µM; for IC50: jurkat; for pIC50: read-out: IC50; for pKi: read-out: Ki.
Sigma non-opioid intracellular receptor 1, sequence (Q99720 whole entry): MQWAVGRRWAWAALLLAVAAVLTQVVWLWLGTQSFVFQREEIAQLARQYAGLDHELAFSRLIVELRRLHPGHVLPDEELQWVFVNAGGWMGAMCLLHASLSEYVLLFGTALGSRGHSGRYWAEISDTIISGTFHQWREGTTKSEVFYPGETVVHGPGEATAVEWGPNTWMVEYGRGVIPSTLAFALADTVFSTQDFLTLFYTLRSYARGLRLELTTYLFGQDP
Another assay concerns the target T1, Glucocorticoid receptor (Homo sapiens, UniProt P04150). Further: in other assays of this panel Not Active means under 50% inhibition at 10 µM.
T1 sequence (P04150 whole entry): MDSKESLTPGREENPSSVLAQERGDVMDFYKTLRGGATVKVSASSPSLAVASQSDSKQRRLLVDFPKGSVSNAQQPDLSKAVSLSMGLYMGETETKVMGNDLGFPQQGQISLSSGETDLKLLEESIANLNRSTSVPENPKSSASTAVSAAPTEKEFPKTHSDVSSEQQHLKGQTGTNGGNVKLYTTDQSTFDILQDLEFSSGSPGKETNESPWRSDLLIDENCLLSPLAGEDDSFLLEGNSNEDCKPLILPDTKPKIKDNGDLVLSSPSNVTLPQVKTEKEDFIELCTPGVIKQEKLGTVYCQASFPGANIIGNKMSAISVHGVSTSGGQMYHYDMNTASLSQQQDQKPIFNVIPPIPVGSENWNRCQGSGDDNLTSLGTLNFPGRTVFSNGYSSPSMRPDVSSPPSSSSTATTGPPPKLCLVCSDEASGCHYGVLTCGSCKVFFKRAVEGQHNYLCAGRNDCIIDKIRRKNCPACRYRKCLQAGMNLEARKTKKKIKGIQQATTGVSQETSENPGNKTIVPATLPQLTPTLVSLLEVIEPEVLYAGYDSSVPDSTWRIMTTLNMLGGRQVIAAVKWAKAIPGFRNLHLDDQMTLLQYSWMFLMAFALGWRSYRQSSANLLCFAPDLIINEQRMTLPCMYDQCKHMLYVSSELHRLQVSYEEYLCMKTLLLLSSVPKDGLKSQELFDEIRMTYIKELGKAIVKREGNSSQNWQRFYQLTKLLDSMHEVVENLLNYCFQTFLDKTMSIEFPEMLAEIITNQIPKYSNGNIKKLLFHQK
Particulars: hela s3.

The target of assay [4] is T2, 5-hydroxytryptamine receptor 2C (Homo sapiens, UniProt P28335).
T2 sequence (P28335 whole entry): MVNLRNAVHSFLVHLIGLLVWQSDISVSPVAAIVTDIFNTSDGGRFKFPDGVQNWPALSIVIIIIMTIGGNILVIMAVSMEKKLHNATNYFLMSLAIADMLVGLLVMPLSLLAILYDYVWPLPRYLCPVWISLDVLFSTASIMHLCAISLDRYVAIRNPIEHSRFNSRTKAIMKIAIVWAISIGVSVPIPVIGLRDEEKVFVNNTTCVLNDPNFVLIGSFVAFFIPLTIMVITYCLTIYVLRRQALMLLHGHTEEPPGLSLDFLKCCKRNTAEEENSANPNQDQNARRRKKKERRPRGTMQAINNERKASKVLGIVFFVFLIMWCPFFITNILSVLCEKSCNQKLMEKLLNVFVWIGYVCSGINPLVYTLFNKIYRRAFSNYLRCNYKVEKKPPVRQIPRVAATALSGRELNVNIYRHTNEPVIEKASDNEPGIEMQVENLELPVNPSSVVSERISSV
Description: DRUGMATRIX: Serotonin (5-Hydroxytryptamine) 5-HT2C radioligand binding (ligand: [3H] Mesulergine). It counts as cell membranes, CHO-K1, Membrane. The following applies: Not Active = under 50% inhibition at 10 µM; for IC50: cho-k1.

Assay [5] has as its target T3, Nitric oxide synthase, inducible (Mus musculus, UniProt P29477).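 Further: inhibition of iNOS enzyme activity measured with L-arginine as substrate; in other assays of this panel Not Active means under 50% inhibition at 10 µM.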
T3 sequence (P29477 whole entry): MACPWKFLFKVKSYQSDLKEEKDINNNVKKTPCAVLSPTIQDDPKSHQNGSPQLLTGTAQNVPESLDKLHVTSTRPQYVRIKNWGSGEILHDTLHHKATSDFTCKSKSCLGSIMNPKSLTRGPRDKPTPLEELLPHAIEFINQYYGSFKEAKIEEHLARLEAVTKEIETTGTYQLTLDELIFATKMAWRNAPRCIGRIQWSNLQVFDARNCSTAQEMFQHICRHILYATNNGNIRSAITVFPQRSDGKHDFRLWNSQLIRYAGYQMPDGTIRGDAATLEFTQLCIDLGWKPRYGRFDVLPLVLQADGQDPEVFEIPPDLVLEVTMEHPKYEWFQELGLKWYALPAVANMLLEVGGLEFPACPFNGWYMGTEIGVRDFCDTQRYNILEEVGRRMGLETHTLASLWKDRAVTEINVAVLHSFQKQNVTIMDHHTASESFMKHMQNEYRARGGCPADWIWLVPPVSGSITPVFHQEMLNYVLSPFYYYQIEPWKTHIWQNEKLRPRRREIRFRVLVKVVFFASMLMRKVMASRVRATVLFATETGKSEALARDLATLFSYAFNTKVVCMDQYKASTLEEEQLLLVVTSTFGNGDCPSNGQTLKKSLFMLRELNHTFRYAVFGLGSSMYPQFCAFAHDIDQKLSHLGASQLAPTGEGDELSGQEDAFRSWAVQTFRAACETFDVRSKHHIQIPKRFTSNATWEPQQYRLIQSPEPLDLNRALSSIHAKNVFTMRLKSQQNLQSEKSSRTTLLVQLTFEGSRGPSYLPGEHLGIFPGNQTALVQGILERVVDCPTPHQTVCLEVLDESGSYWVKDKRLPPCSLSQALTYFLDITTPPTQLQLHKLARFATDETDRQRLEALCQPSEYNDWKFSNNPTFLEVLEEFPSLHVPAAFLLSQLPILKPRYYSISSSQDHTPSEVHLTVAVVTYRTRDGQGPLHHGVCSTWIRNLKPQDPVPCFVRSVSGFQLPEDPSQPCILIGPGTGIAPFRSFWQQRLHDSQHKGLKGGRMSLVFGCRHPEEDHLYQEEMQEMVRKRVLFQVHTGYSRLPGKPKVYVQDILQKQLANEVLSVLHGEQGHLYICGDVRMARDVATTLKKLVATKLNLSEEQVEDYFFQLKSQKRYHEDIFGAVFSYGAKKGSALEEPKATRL
More on the design: species or system Escherichia coli.

A short description of assay [6]: DRUGMATRIX: Atrial Natriuretic Factor (ANF) radioligand binding (ligand: [125I] ANF (rat)). Type of assay: cell membranes, Cavia porcellus, Dunkin-Hartley, Adrenal gland, Membrane. The following applies: Not Active = under 50% inhibition at 10 µM.
The next assay concerns the target Melanocortin receptor 3 (Homo sapiens, UniProt P41968). Type of assay: cell membranes, Membrane. Particulars: hek293. Further: in other assays of this panel Not Active means under 50% inhibition at 10 µM.

Each structure is given as a SMILES string. pIC50, pKi: −log10 of the molar value.

Melanocortin receptor 3, sequence (P41968 whole entry): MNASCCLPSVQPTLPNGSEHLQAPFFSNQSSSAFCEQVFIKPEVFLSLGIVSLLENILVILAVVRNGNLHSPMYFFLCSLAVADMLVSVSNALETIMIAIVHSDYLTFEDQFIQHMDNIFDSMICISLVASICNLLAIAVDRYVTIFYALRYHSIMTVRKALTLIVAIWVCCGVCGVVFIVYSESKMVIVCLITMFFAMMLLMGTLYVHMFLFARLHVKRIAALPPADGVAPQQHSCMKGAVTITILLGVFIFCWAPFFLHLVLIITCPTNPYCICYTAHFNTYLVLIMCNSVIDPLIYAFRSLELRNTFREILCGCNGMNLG

By pIC50 is commonly meant the IC50 on a negative log10 scale, so that one unit is a factor of ten. A word on the pKi: it is −log10 of the Ki, conventionally taken in molar units. For the compound `COc1cc(N)nc2[nH]c(-c3ccc(F)cc3)c(-c3ccncc3)c12`, the IC50 entry (in assay [1]; in assay [2]; in assay [3]; against Glucocorticoid receptor; in assay [5]; in assay [6]) was “Not Active” throughout. Moreover, on Melanocortin receptor 3, the IC50 entry was “Not Active”. Besides, the Ki result in assay [2] and in assay [6] was “Not Active” throughout. Further, the negative logarithm of the IC50 (pIC50) in assay [4] (read-out: IC50) was 5.91. Further, the pKi in assay [4] (read-out: Ki) is 6.19.
Consider `CNS(=O)(=O)Cc1ccc2[nH]cc(CCN(C)C)c2c1`, for which the IC50 entry (in assay [1]; in assay [2]; in assay [3]; at Glucocorticoid receptor; in assay [4]; in assay [5]) was “Not Active” each time. Also, the IC50 result (in assay [6]; against Melanocortin receptor 3) was “Not Active” throughout. Further, the Ki entry in assay [2] and in assay [6] was “Not Active” throughout.
`CCCc1nn(C)c2c(=O)[nH]c(-c3cc(S(=O)(=O)N4CCN(C)CC4)ccc3OCC)nc12`: the IC50 entry (in assay [1]; in assay [2]; in assay [3]; on Glucocorticoid receptor; in assay [4]; in assay [5]) was “Not Active” throughout. Moreover, the IC50 entry (in assay [6]; on Melanocortin receptor 3) was “Not Active” each time. In addition, the Ki entry in assay [2] and in assay [6] was “Not Active” each time.
Take `COc1ccc(/C=C/C(=O)Nc2ccccc2C(=O)O)cc1OC`: the IC50 entry (in assay [1]; in assay [2]; in assay [3]; against Glucocorticoid receptor; in assay [4]; in assay [5]) was “Not Active” throughout. The IC50 result (in assay [6]; on Melanocortin receptor 3) was “Not Active” throughout. The Ki result in assay [2] and in assay [6] was “Not Active” throughout.
For `CC(=O)Nc1nnc(S(N)(=O)=O)s1` [ACETAZOLAMIDE], the IC50 entry (in assay [1]; in assay [3]; against Glucocorticoid receptor; in assay [4]; in assay [5]; at Melanocortin receptor 3) was “Not Active” throughout.
For the compound `O=c1[nH]c2ccccc2n1CCCN1CCC(n2c(=O)[nH]c3cc(Cl)ccc32)CC1` [DOMPERIDONE], the IC50 result (in assay [1]; in assay [3]; on Glucocorticoid receptor; in assay [5]; on Melanocortin receptor 3) was “Not Active” throughout.
In the case of `CC(C)OC(=O)C(C)(C)Oc1ccc(C(=O)c2ccc(Cl)cc2)cc1` [FENOFIBRATE], the IC50 entry (in assay [1]; in assay [3]; at Glucocorticoid receptor; in assay [5]; on Melanocortin receptor 3) was “Not Active” throughout.
In the case of `OCCN1CCN(CCCN2c3ccccc3Sc3ccc(C(F)(F)F)cc32)CC1` [FLUPHENAZINE], the IC50 result (in assay [1]; on Glucocorticoid receptor; in assay [5]; against Melanocortin receptor 3) was “Not Active” throughout. In addition, in assay [3], the pIC50 was 7.70. The negative-log Ki (pKi) in assay [3] was 8.07.
Take `Nc1nc2c(c(=O)[nH]1)N(C=O)C(CNc1ccc(C(=O)N[C@@H](CCC(=O)O)C(=O)O)cc1)CN2` (stereo not given in full) [LEUCOVORIN]: the IC50 result (in assay [1]; in assay [2]; in assay [3]; against Glucocorticoid receptor; in assay [4]; in assay [5]) was “Not Active” in each case. Besides, the IC50 result (in assay [6]; at Melanocortin receptor 3) was “Not Active” in each case. Besides, the Ki result in assay [2] and in assay [6] was “Not Active” each time.
Consider `CCN(CC)CC#CCOC(=O)C(O)(c1ccccc1)C1CCCCC1` (stereo not given) [OXYBUTYNIN], for which the IC50 entry (in assay [1]; at Glucocorticoid receptor; in assay [4]; in assay [5]; against Melanocortin receptor 3) was “Not Active” each time. In addition, the pIC50 in assay [3] is 7.62. For the same compound, in assay [3], the pKi is 7.99.
